# ChEMBL document CHEMBL1157457, “Alstilobanines A-E, new indole alkaloids from Alstonia angustiloba” (2008)
# Test system: Aorta
# Experiment: Vasorelaxation activity against phenylephrine-stimulated contraction in Wistar rat thoracic aorta at 30 uM
# Type: functional
# Parameters: scale not given: the % may be the effect or the level left
row,SMILES,Activity [%]
1,"COC(=O)[C@@]1(c2cc3ccccc3[nH]2)COCC=C2CN(C)CC[C@@H]21 [6,7-SECO-ANGUSTILOBINE B]",7
2,COC(=O)[C@]1(CO)c2[nH]c3ccccc3c2[C@@H](C)[C@]2(O)CNCC[C@@H]21 [ALSTILOBANINE A],44.3
3,COC(=O)[C@@]12COCC[C@H]3[C@@H]1CC[N@@+](C)([O-])[C@H]3c1c2[nH]c2ccccc12 [ALSTILOBANINE B],21.2
4,COC(=O)[C@@]12COCC[C@@H]3[C@@H](NCC[C@@H]31)c1c2[nH]c2ccccc12 [ALSTILOBANINE C],28
5,COC(=O)[C@@]1(c2cc3ccccc3[nH]2)COCC=C2C[N@+](C)([O-])CC[C@@H]21 [ALSTILOBANINE D],10
6,COC(=O)[C@@]12COC[C@H](c3c1[nH]c1ccccc31)[C@]1(O)CNCC[C@@H]12 [ALSTILOBANINE E],6.8
7,O=C(O)[C@@]12COCC=C3CN(CC[C@@H]31)Cc1c2[nH]c2ccccc12 [ALSTONAMIC ACID],35
8,COC(=O)[C@]12COCC[C@@H]3[C@H](c4c1[nH]c1ccccc41)N(C)CC[C@@H]32 [UNDULIFOLINE],33.3
